For the experiment, the target named is T1, BTK (Homo sapiens, UniProt Q06187).
T1 construct: purified from insect cells as a full-length construct containing a N-terminal 6×-His tag; His6 (N); made in house; host or cells: insect cells (baculovirus, Sf21)
T1 sequence (Q06187 whole entry): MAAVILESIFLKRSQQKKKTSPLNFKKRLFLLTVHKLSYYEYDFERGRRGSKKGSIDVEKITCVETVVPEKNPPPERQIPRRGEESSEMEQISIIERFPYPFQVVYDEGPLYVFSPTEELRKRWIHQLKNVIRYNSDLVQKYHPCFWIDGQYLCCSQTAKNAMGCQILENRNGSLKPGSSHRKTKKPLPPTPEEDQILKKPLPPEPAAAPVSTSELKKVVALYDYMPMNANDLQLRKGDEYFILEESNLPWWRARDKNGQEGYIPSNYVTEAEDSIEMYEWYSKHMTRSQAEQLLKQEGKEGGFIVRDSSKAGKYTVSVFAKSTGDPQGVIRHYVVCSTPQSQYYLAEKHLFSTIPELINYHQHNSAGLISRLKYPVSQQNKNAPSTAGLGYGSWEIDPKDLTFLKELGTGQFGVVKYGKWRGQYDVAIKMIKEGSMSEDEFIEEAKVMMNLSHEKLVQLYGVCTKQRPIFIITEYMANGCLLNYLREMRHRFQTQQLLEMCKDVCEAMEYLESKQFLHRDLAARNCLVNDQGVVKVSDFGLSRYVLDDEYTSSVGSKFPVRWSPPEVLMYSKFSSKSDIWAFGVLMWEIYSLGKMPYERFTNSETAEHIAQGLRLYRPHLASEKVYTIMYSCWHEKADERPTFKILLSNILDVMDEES
The experiment can be described thus: Btk in vitro inhibitory activity / inhibition of a panel of kinases (TR-FRET, mobility shift or radiometric filter binding). The settings on record: kinase assay by one of methods A, B or C. The class given is biochemical. As for the experimental part:
Btk kinase activity is determined using a time-resolved fluorescence resonance energy transfer (TR-FRET) methodology. Measurements are performed in a reaction volume of 50 μL using 96-well assay plates. Kinase enzyme, inhibitor, ATP (at the Km for the kinase), and 1 μM peptide substrate (Biotin-AVLESEEELYSSARQ-NH2) are incubated in a reaction buffer composed of 20 mM Tris, 50 mM NaCl, MgCl2 (5-25 mM depending on the kinase), MnCl2 (0-10 mM), 1 mM DTT, 0.1 mM EDTA, 0.01% bovine serum albumin, 0.005% Tween-20, and 10% DMSO at pH 7.4 for one hour. The reaction is quenched by the addition of 1.2 equivalents of EDTA (relative to divalent cation) in 25 μL of 1× Lance buffer (Perkin-Elmer). Streptavidin-APC (Perkin-Elmer) and Eu-labeled p-Tyr100 antibody (Perkin-Elmer) in 1× Lance buffer are added in a 25 μL volume to give final concentrations of 100 nM and 2.5 nM, respectively, and the mixture is allowed to incubate for one hour. The TR-FRET signal is measured on a multimode plate reader with an excitation wavelength (λEx) of 330 nm and detection wavelengths (λEm) of 615 and 665 nm. Activity is determined by the ratio of the fluorescence at 665 nm to that at 615 nm. For each compound, enzyme activity is measured at various concentrations of compound. Negative control reactions are performed in the absence of inhibitor in replicates of six, and two no-enzyme controls are used to determine baseline fluorescence levels. Inhibition constants, Ki(app), ware obtained using the program BatchKi (Kuzmic et al. (2000), Anal. Biochem. 286:45-50). IC50s are obtained according to the equation: IC50={Ki(app)/(1+[ATP]/Km^ATP)}+[E]total/2;
For all kinases, [ATP]=Km^ATP, [Btk]total=0.5 nM and [Lck]total=6 nM.
Kinase activity is measured in vitro using electrophoretic mobility shift assay. The kinase reactions are assembled in a total volume of 25 μL in 384 well plates. The reactions comprise: BTK enzyme (1 nM, N-terminal His6-tagged, recombinant, full-length, human BTK purified from baculovirus Sf21 insect cell system), inhibitor, ATP ([…] the apparent Km for the kinase), fluorescently labeled peptide substrate (1 μM, FAM-GEEPLYWSFPAKKK-NH2) in a reaction buffer composed of 100 mM HEPES, pH7.5, 5 mM MgCl2 1 mM DTT, 0.1% bovine serum albumin, 0.01% Triton X-100, and 1% DMSO. The reaction is incubated for one hour and is quenched by the addition of 45 μL of termination buffer (100 mM HEPES, pH7.5, 0.01% Triton X-100, 30 mM EDTA). The terminated reactions are analyzed using 12 channel LabChip® 3000 microfluidic detection instrument (Caliper Life Sciences). The enzymatic phosphorylation of the peptide results in a change in net charge, enabling electrophoretic separation of product from substrate peptide. As substrate and product peptides are separated, two peaks of fluorescence are observed. Change in the relative fluorescence intensity of the substrate and product peaks is the parameter measured, reflecting enzyme activity. In the presence of an inhibitor, the ratio between product and substrate is altered: the signal of the product decreases, while the signal of the substrate increases.
Activity in each sample is determined as the product to sum ratio (PSR):P/(S+P), where P is the peak height of the product peptide and S is the peak height of the substrate peptide. For each compound, enzyme activity is measured at various concentrations (12 concentrations of compound spaced by 3× dilution intervals). Negative control samples (0%-inhibition in the absence of inhibitor) and positive control samples (100%-inhibition, in the presence of 20 mM EDTA) are assembled in replicates of four and are used to calculate %-inhibition values for each inhibitor at each concentration. Percent inhibition (Pinh) is determined using following equation: […]
On the technique in general: TR-FRET usually uses a lanthanide donor and a delayed reading to cut background.
As usually defined, the IC50 is the midpoint of a concentration-inhibition curve. As to `Cc1c(-c2ccc(Oc3ccccc3)cc2)c2c(N)ncnc2n1[C@@H]1CCCN(C(=O)/C=C/CN(C)C2CC2)C1` [Compound 72, (R,E)-1-(3-(4-amino-6-methyl-5-(4-phenoxyphenyl)-7H-pyrrolo[2,3-d]pyrimidin-7-yl)piperidin-1-yl)-4-(cyclopropyl(methyl)amino)but-2-en-1-one], the IC50 was less than 100 nM.

On to `Cc1c(-c2ccc(Oc3cccc(F)c3)cc2)c2c(N)ncnc2n1[C@@H]1CCCN(C(=O)/C=C/CN(C)C2CC2)C1` [Compound 76, (R,E)-1-(3-(4-amino-5-(4-(3-fluorophenoxyl)phenyl)-6-methyl-7H-pyrrolo[2,3-d]pyrimidin-7-yl)piperidin-1-yl)-4-(cyclopropyl(methyl)amino)but-2-en-1-one], for which the IC50 was less than 100 nM.

`COCCN(C/C=C/C(=O)N1CC[C@@H](n2c(C)c(-c3ccc(Oc4ccccc4)cc3)c3c(N)ncnc32)C1)CCOC` [Compound 79, (R,E)-1-(3-(4-amino-6-methyl-5-(4-phenoxyphenyl)-7H-pyrrolo[2,3-d]pyrimidin-7-yl)pyrrolidin-1-yl)-4-(bis(2-methoxyethyl)amino)but-2-en-1-one]: the IC50 is less than 100 nM.

In the case of `Cc1c(-c2ccc(OCc3cnn[nH]3)cc2)c2c(N)ncnc2n1[C@@H]1CCN(C(=O)/C=C/CN(C)C2CC2)C1` [Compound 86, (R,E)-1-(3-(5-(4-((1H-1,2,3-triazol-5-yl)methoxy)phenyl)-4-amino-6-methyl-7H-pyrrolo[2,3-d]pyrimidin-7-yl)pyrrolidin-1-yl)-4-(cyclopropyl(methyl)amino)but-2-en-1-one], the IC50 is less than 100 nM.

For `COc1c(-c2ccc(Oc3ccccc3)cc2)c2c(N)ncnc2n1[C@@H]1CCN(C(=O)/C=C/CN(C)C)C1` [Compound 88, (R,E)-1-(3-(4-amino-6-methoxy-5-(4-phenoxyphenyl)-7H-pyrrolo[2,3-d]pyrimidin-7-yl)pyrrolidin-1-yl)-4-(dimethylamino)but-2-en-1-one], the IC50 was less than 100 nM.

As for `COc1c(-c2ccc(Oc3ccccc3)cc2)c2c(N)ncnc2n1[C@@H]1CCN(C(=O)/C=C/CN(C)C2CC2)C1` [Compound 89, (R,E)-1-(3-(4-amino-6-methoxy-5-(4-phenoxyphenyl)-7H-pyrrolo[2,3-d]pyrimidin-7-yl)pyrrolidin-1-yl)-4-(cyclopropyl(methyl)amino)but-2-en-1-one], the IC50 was less than 100 nM.

For the compound `COc1c(-c2ccc(Oc3cccc(F)c3)cc2)c2c(N)ncnc2n1[C@@H]1CCN(C(=O)/C=C/CN(C)C2CC2)C1` [Compound 92, (R,E)-1-(3-(4-amino-5-(4-(3-fluorophenoxyl)phenyl)-6-methoxy-7H-pyrrolo[2,3-d]pyrimidin-7-yl)pyrrolidin-1-yl)-4-(cyclopropyl(methyl)amino)but-2-en-1-one], the IC50 is less than 100 nM.

Take `CN(C/C=C/C(=O)N1CC[C@@H](n2c(C3CC3)c(-c3ccc(Oc4ccccc4)cc3)c3c(N)ncnc32)C1)C1CC1` [Compound 94, (R,E)-1-(3-(4-amino-6-cyclopropyl-5-(4-phenoxyphenyl)-7H-pyrrolo[2,3-d]pyrimidin-7-yl)pyrrolidin-1-yl)-4-(cyclopropyl(methyl)amino)but-2-en-1-one]: the IC50 is less than 100 nM.

Take `CN(C/C=C/C(=O)N1CC[C@@H](n2c(C3CC3)c(-c3ccc(Oc4ccccc4)cc3)c3c(N)ncnc32)C1)[C@H]1CCOC1` [Compound 95, (E)-1-((R)-3-(4-amino-6-cyclopropyl-5-(4-phenoxyphenyl)-7H-pyrrolo[2,3-d]pyrimidin-7-yl)pyrrolidin-1-yl)-4-(methyl((S)-tetrahydrofuran-3-yl)amino)but-2-en-1-one]: the IC50 is less than 100 nM.

In the case of `COCCN(C)C/C=C/C(=O)N1CC[C@@H](n2c(C3CC3)c(-c3ccc(Oc4ccccc4)cc3)c3c(N)ncnc32)C1` [Compound 96, (R,E)-1-(3-(4-amino-6-cyclopropyl-5-(4-phenoxyphenyl)-7H-pyrrolo[2,3-d]pyrimidin-7-yl)pyrrolidin-1-yl)-4-((2-methoxyethyl)(methyl)amino)but-2-en-1-one], the IC50 was less than 100 nM.

Regarding `CN(C/C=C/C(=O)N1CC[C@@H](n2c(C3CC3)c(-c3ccc(Oc4ccccc4)cc3)c3c(N)ncnc32)C1)[C@@H]1CCOC1` [Compound 97, (E)-1-((R)-3-(4-amino-6-cyclopropyl-5-(4-phenoxyphenyl)-7H-pyrrolo[2,3-d]pyrimidin-7-yl)pyrrolidin-1-yl)-4-(methyl((R)-tetrahydrofuran-3-yl)amino)but-2-en-1-one], the IC50 was less than 100 nM.

On to `CN(C/C=C/C(=O)N1CC[C@@H](n2c(C3CC3)c(-c3ccc(Oc4cccc(F)c4)cc3)c3c(N)ncnc32)C1)C1CC1` [Compound 99, (R,E)-1-(3-(4-amino-6-cyclopropyl-5-(4-(3-fluorophenoxy)phenyl)-7H-pyrrolo[2,3-d]pyrimidin-7-yl)pyrrolidin-1-yl)-4-(cyclopropyl(methyl)amino)but-2-en-1-one], for which the IC50 is 100 to 1000 nM.

For the compound `CN(C)C/C=C/C(=O)N1CC[C@@H](n2c(C3CC3)c(-c3ccc(Oc4ccccc4)cc3)c3c(N)ncnc32)C1` [Compound 100, (R,E)-1-(3-(4-amino-6-cyclopropyl-5-(4-phenoxyphenyl)-7H-pyrrolo[2,3-d]pyrimidin-7-yl)pyrrolidin-1-yl)-4-(dimethylamino)but-2-en-1-one], the IC50 was less than 100 nM.

Turning to `CN(C)C/C=C/C(=O)N1CC[C@@H](n2c(C#N)c(-c3ccc(Oc4ccccc4)cc3)c3c(N)ncnc32)C1` [Compound 102, (R,E)-4-amino-7-(1-(4-(dimethylamino)but-2-enoyl)pyrrolidin-3-yl)-5-(4-phenoxyphenyl)-7H-pyrrolo[2,3-d]pyrimidine-6-carbonitrile], the IC50 is less than 100 nM.

Turning to `CN(C/C=C/C(=O)N1CC[C@@H](n2c(C#N)c(-c3ccc(Oc4ccccc4)cc3)c3c(N)ncnc32)C1)C1CC1` [Compound 103, (R,E)-4-amino-7-(1-(4-(cyclopropyl(methyl)amino)but-2-enoyl)pyrrolidin-3-yl)-5-(4-phenoxyphenyl)-7H-pyrrolo[2,3-d]pyrimidine-6-carbonitrile], the IC50 is less than 100 nM.

Take `COCCN(C)C/C=C/C(=O)N1CC[C@@H](n2c(C#N)c(-c3ccc(Oc4ccccc4)cc3)c3c(N)ncnc32)C1` [Compound 104, (R,E)-4-amino-7-(1-(4-((2-methoxyethyl)(methyl)amino)but-2-enoyl)pyrrolidin-3-yl)-5-(4-phenoxyphenyl)-7H-pyrrolo[2,3-d]pyrimidine-6-carbonitrile]: the IC50 was less than 100 nM.

On to `COCCN(C/C=C/C(=O)N1CC[C@@H](n2c(C#N)c(-c3ccc(Oc4ccccc4)cc3)c3c(N)ncnc32)C1)CCOC` [Compound 105, (R,E)-4-amino-7-(1-(4-(bis(2-methoxyethyl)amino)but-2-enoyl)pyrrolidin-3-yl)-5-(4-phenoxyphenyl)-7H-pyrrolo[2,3-d]pyrimidine-6-carbonitrile], for which the IC50 is less than 100 nM.

`CN(C/C=C/C(=O)N1CC[C@@H](n2c(C#N)c(-c3ccc(Oc4ccccc4)cc3)c3c(N)ncnc32)C1)[C@H]1CCOC1` [Compound 106, 4-amino-7-((R)-1-((E)-4-(methyl((S)-tetrahydrofuran-3-yl)amino)but-2-enoyl)pyrrolidin-3-yl)-5-(4-phenoxyphenyl)-7H-pyrrolo[2,3-d]pyrimidine-6-carbonitrile]: the IC50 is less than 100 nM.

Values taken from patent US9540385B2, “Pyrrolopyrimidine compounds as kinase inhibitors” (Pharmacyclics LLC, priority 2012, dated 2017).
